What was measured:
[1] = test system: cardiac tissue; details: cited from earlier work
[2] = test system: cardiac tissue; experiment: optogenetic muscle thin film contractile assay, frequency and dose-dependent response of drug-treated tissue; assay type: cell-based
Excerpt: The system 300 can incorporate the system 290. The system 300 can be substantially similar in structure and function to the systems discussed above, except for the distinctions noted herein. Therefore, like reference numbers represent like structures. The system 300 can include a lens 152 disposed above the platform 222 and a C-mount lens 302 (e.g., a 1× lens) disposed above the lens 152. The system 300 can further include a sensor 304 (e.g., a 100 frames per second complementary metal oxide semiconductor (CMOS) camera, or the like) disposed above the lens 302. The components 152, 302, 304 can be aligned along the vertical axis 164.
The system 300 can include mirror 306 (e.g., a mirror with an oblique angle), a filter 308 (e.g., an LP filter, such as 776LP), and a light source 310 aligned along an axis 312 substantially perpendicular to the vertical axis 164. Light imparted from the light source 310 can be directed by the mirror 306 at the tissue structures 224. The light can further be directed at the sensor 304. The system 300 provides a combination of an optogenetic tissue structure and an optical mapping system setup, including bright field microscopy for optogenetic tissue structures with the sensor 304 and red light illumination from the filter 308.
124 muscle thin films were tested on 15 chips or platforms using three harvests. The error bar indicates a standard error of mean and the shading indicates approximately 95% confidence limits. […] Thus, the independently paced optogenetic muscle thin films enable higher throughput assays to investigate the frequency-dependent response.
As an example, quinidine and verapamil (both frequency-dependent) were tested for frequency and dose-dependent response in cardiac tissue. In particular, optogenetic muscle thin films in a contractile assay were used to recapitulate frequency and dose dependent mechanical responses of drug-treated tissue. In particular, FIGS. 61 and 62 show the pacing frequency, change in spontaneous beating rate frequency, change in twitch stress, and change in maximum Dt/dt for quinidine and verapamil.

C=C[C@H]1C[N@@]2CC[C@H]1C[C@@H]2[C@@H](O)c1ccnc2ccc(OC)cc12 [quinidine]
effect on myocardial contractility ([1]; when given in therapeutic doses, general statement): does not directly affect myocardial contractility

COc1ccc(CCN(C)CCCC(C#N)(c2ccc(OC)c(OC)c2)C(C)C)cc1OC (centres unmarked) [verapamil]
1:1 coupling ([2]; at a low frequency with relatively low concentration, optical pacing): low | inotropic effect (twitch stress, contractility) ([2]; comparison of verapamil with quinidine): stronger negative inotropic effect than quinidine | spontaneous beating rate ([2]; drug-treated cardiac tissue): increase | effect on calcium handling ([1]; general statement explaining the inotropic result): directly affects calcium handling
